Where “and” joins values, the source holds several entries; their conditions need not be identical. Equal entries are not always repeated.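 The compound was tested at five concentrations on cells cultured in 96-well plates, with a 48-hour exposure period. GI50 = concentration required for 50% inhibition of growth.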 Calls of active or inactive are those of the source. Rule as the data show it: active = GI50 up to about 1.1 µM and inactive = higher.
Key:
Experiment in all cases: NCI anticancer screen, dose series, 48 h
NCI-H23 = test system: NCI-H23
RXF 393 = test system: RXF 393
CAKI-1 = test system: CAKI-1
HOP-92 = test system: HOP-92
A498 = test system: A498
SK-MEL-5 = test system: SK-MEL-5
SF-268 = test system: SF-268
HCT-116 = test system: HCT-116
OVCAR-5 = test system: OVCAR-5
PC-3 = test system: PC-3
RPMI-8226 = test system: RPMI-8226
A549 = test system: A549
BT-549 = test system: BT-549
SW-620 = test system: SW-620
T47D = test system: T47D
SK-OV-3 = test system: SK-OV-3
COLO 205 = test system: COLO 205
SF-295 = test system: SF-295
HCC 2998 = test system: HCC 2998
ACHN = test system: ACHN

Measured: GI50

CC(C)(C)OC(=O)N1CC(O)O[C@H](c2ccccc2)[C@@H]1c1ccccc1 (some centres undefined)
inactive: NCI-H23 15.9 µM | RXF 393 15.1 µM | CAKI-1 44.9 µM | HOP-92 16.7 µM | A498 21.4 µM | SK-MEL-5 27.9 µM | SF-268 25.5 µM | HCT-116 44.6 µM | OVCAR-5 17.9 µM | PC-3 14.7 µM | RPMI-8226 24.7 µM | A549 18.7 µM | BT-549 17.8 µM | SW-620 16.6 µM | T47D 31.1 µM | SK-OV-3 14.9 µM | COLO 205 31 µM | SF-295 16.4 µM

Fc1ccc(OCc2ccc3nc(-c4ccccc4)c(Cl)nc3c2)cc1
inactive: NCI-H23 25.3 µM | CAKI-1 22.1 µM | HOP-92 25.7 µM | A498 25.8 µM | SK-MEL-5 17 µM | SF-268 26 µM | HCT-116 31.6 µM | OVCAR-5 41.7 µM | PC-3 37.2 µM | RPMI-8226 96.2 µM | A549 38.6 µM | BT-549 31.1 µM | SW-620 77.3 µM | T47D 31.6 µM | HCC 2998 40.5 µM | ACHN 25.4 µM | COLO 205 37.1 µM | SF-295 21.4 µM

CC1NC(/C(=C/c2ccccc2O)NC(=O)c2ccccc2)OC1=O (centres undefined)
inactive: NCI-H23 > 50 µM | CAKI-1 > 50 µM | HOP-92 11 µM | A498 > 50 µM | SK-MEL-5 39.7 µM | HCT-116 > 50 µM | OVCAR-5 > 50 µM | PC-3 30.7 µM | RPMI-8226 > 50 µM | A549 > 50 µM | BT-549 > 50 µM | SW-620 > 50 µM | T47D 27.7 µM | SK-OV-3 48.2 µM | HCC 2998 > 50 µM | ACHN 22.4 µM | COLO 205 > 50 µM | SF-295 > 50 µM

C=C1C(=O)OC2/C=C(\CO)C(OC(C)=O)CC(O)/C(C)=C/C(OC(=O)C(C)CC)C12 (centres undefined)
inactive: NCI-H23 24.2 µM and 17.2 µM | RXF 393 23.1 µM and 24.4 µM | CAKI-1 27.5 µM and 24.2 µM | HOP-92 18.5 µM and 21.7 µM | A498 33 µM and 28.2 µM | SK-MEL-5 18.8 µM and 17 µM | SF-268 28.9 µM and 19.7 µM | HCT-116 14 µM and 19.7 µM | PC-3 39.2 µM | A549 45.8 µM and 37.3 µM | BT-549 19.4 µM | SW-620 11.8 µM and 21.5 µM | T47D 15.7 µM | SK-OV-3 > 100 µM | HCC 2998 22.4 µM and 15.6 µM | ACHN 26.2 µM and 23.7 µM | COLO 205 14 µM and 11.8 µM | SF-295 > 100 µM

O=C1CCSC(=S)N1c1ccc(Br)c(Cl)c1
inactive: NCI-H23 53.2 µM | RXF 393 20.1 µM | CAKI-1 29.6 µM | HOP-92 25.4 µM | A498 22.2 µM | SK-MEL-5 18.4 µM | SF-268 18.5 µM | HCT-116 36.5 µM | OVCAR-5 43.9 µM | PC-3 34.5 µM | RPMI-8226 33.7 µM | A549 35.3 µM | BT-549 21.1 µM | SW-620 28.1 µM | T47D 14.9 µM | SK-OV-3 37.6 µM | ACHN 21.6 µM | COLO 205 20.2 µM | SF-295 32.7 µM

COC(=O)C12C3C4(C(=O)OC)C1C1(C(=O)OC)C2C3(C(=O)OC)C41C(=O)N(C(C)C)C(C)C (centres undefined)
inactive: NCI-H23 > 100 µM | RXF 393 > 100 µM | CAKI-1 > 100 µM | HOP-92 > 100 µM | A498 > 100 µM | SK-MEL-5 > 100 µM | SF-268 > 100 µM | HCT-116 > 100 µM | OVCAR-5 > 100 µM | PC-3 > 100 µM | A549 > 100 µM | BT-549 > 100 µM | SW-620 > 100 µM | T47D > 100 µM | HCC 2998 > 100 µM | ACHN > 100 µM | COLO 205 > 100 µM | SF-295 > 100 µM

From ChEMBL document CHEMBL1201862, “PubChem BioAssay data set” (2004)
